Measured values: publication PMC11280390, “Synthesis of Nitrostyrylthiazolidine-2,4-dione Derivatives Displaying Antileishmanial Potential” (Pharmaceuticals, 2024)
Like-named read-outs stand apart in the source and are kept apart here.

Key:
[1] = system: Leishmania infantum promastigotes; test: In vitro antileishmanial activity on L. infantum promastigotes (MTT, 72 h); assay type: cell-based; settings: L. infantum promastigotes, MTT, read-out: Anti-L. infantum Promastigote Activity EC50
Method: Luciferase-expressing Leishmania infantum was kindly provided by Professor Thierry Lang of the Institut Pasteur. L. infantum promastigotes were routinely grown at 27 °C in Schneider’s Drosophila Medium (Dominique […] SAS, Bernolsheim, France) supplemented with 10% fetal calf serum, 2% human urine, sodium pyruvate 0.04 mM, hemin 0.1 µg/mL, HEPES 5 mM, streptomycin 100 µg/mL, penicillin 100 U/mL, L-glutamine 2 mM (culture medium). The in vitro evaluation of the antileishmanial activity of the tested compound on L. infantum promastigotes forms was assessed according to the Mosmann protocol with slight modifications. […] Appropriate controls treated with DMSO, Miltefosine, Amphotericin B and Fexinidazole sulfone (reference drugs purchased from Sigma-Aldrich, Saint-Louis, MO, USA) were added to each set of experiments. The plates were incubated at 27 °C for 72 h, Then, each plate-well was microscope-analyzed to detect any precipitate formation. Afterward, 20 µL of MTT (3-(4,5-dimethylthiazol-2-yl)-2,5-diphenyltetrazolium bromide) (Sigma-Aldrich, Saint-Louis, MI, USA) solution (5 mg/mL in PBS) were added to each well and incubated at 27 °C for 4 h. The reaction was then stopped by the addition of 100 µL of 10% sodium dodecyl sulfate—50% isopropanol. Plates were shaken vigorously at 400 rpm for 10 min. […] EC50 values represent the mean value calculated from at least three separate experiments.

[2] = In vitro cytotoxicity on the human hepatic HepG2 cell line (MTT, 72 h); settings: human, HepG2 cells (hepatocarcinoma cell line, ATCC HB-8065), HepG2 Cytotoxicity CC50, HepG2, 72 h, MTT
Method: (§1) HepG2 cell line (hepatocarcinoma cell line purchased from ATCC, ref HB-8065) was maintained at 37 °C, 5% CO2 with 90% humidity in MEM supplemented with 10% fetal bovine serum, 1% L-glutamine (200 mM) and penicillin (100 U/mL)/streptomycin ([…]) (complete MEM medium). The tested molecules’ cytotoxicity was assessed according to the method of Mosmann with slight modifications. Briefly, 5 × 10^3 cells in 100 μL of complete medium were inoculated into each well of 96-well plates and incubated at 37 °C in a humidified 5% CO2. After 24 h incubation, 100 μL of medium with various product concentrations dissolved in DMSO (final concentration less than 0.5% v/v) were added and the plates were incubated for 72 h at 37 °C. Triplicate assays were performed for each sample. Each plate well was then microscope-examined to detect possible precipitate formation before the medium was aspirated from the wells. Then, 100 μL of MTT (3-(4,5-dimethyl-2-thiazolyl)-2,5-diphenyl-2H-tetrazolium bromide) solution (0.5 mg/mL in medium without FCS) were then added to each well. Cells were incubated for 2 h at 37 °C, following which the MTT solution was removed and DMSO (100 μL) was added to dissolve the resulting blue formazan crystals. Plates were shaken vigorously (700 rpm) for 10 min. The absorbance was measured at 570 nm with 630 nm as reference wavelength using a TECAN Infinite F-200 spectrophotometer (Tecan Trading AG, Männedorf, Switzerland). DMSO was used as blank and doxorubicin (purchased from Sigma Aldrich, Saint Louis, MI, USA) as positive control. Cell viability was calculated as a percentage of control (cells incubated without compound). […] CC50 values represent the mean value calculated from three separate experiments.

HepG2 cell line = test: as above; settings: for Selectivity INDEX (SI = CC50/EC50): HepG2 CC50 / L. infantum promastigote EC50; for CC50: read-out: HepG2 Cytotoxicity CC50, HepG2, 72 h, MTT
Method: as §1

SMILES	melting point	further results
O=C1NC(=O)/C(=C/c2cccc([N+](=O)[O-])c2)S1 [Compound 4]	–	EC50 ([1]; Leishmania infantum): 28 ± 7.15 µM; CC50 at 72 h [2]: 190 ± 18.6 µM; Selectivity INDEX (SI = CC50/EC50) (HepG2 cell line): 6.8
O=C1NC(=O)/C(=C/c2ccc([N+](=O)[O-])cc2)S1 [Compound 5]	–	EC50 [1]: 14.6 ± 2.9 µM; CC50 at 72 h [2]: 137.1 ± 1.22 µM; Selectivity INDEX (SI = CC50/EC50) (HepG2 cell line): 9.4
COc1cc(/C=C2\SC(=O)NC2=O)cc(OC)c1OC [Compound 6]	185 to 187 °C	–
CCOC(=O)CN1C(=O)S/C(=C\c2ccccc2)C1=O [Compound 12a]	–	EC50 ([1]; Leishmania infantum): 20.6 ± 5.86 µM; CC50 at 72 h [2]: 194 ± 8.92 µM; Selectivity INDEX (SI = CC50/EC50) (HepG2 cell line): 9.4
CCOC(=O)CN1C(=O)S/C(=C\c2ccccc2[N+](=O)[O-])C1=O [Compound 12b, Ethyl ((Z)-5-(2-nitrobenzylidene)thiazolidine-2,4-dion-3-yl)acetate]	81 to 83 °C	EC50 ([1]; Leishmania infantum): 24.1 ± 5.14 µM; CC50 at 72 h [2]: 39.4 ± 7.09 µM; Selectivity INDEX (SI = CC50/EC50) (HepG2 cell line): 1.6
CCOC(=O)CN1C(=O)S/C(=C\c2cccc([N+](=O)[O-])c2)C1=O [Compound 12c, Ethyl ((Z)-5-(3-nitrobenzylidene)thiazolidine-2,4-dion-3-yl)acetate]	–	EC50 ([1]; Leishmania infantum): 5.51 ± 1.29 µM; CC50 at 72 h [2]: 101 to 125 µM; Selectivity INDEX (SI = CC50/EC50) (HepG2 cell line): >22.7; CC50 (HepG2 cell line): > 125 µM
CCOC(=O)CN1C(=O)S/C(=C\c2ccc([N+](=O)[O-])cc2)C1=O [Compound 12d, Ethyl ((Z)-5-(4-nitrobenzylidene)thiazolidine-2,4-dion-3-yl)acetate]	136 to 138 °C	EC50 ([1]; Leishmania infantum): 11.6 ± 2.37 µM; CC50 at 72 h [2]: 101 to 125 µM; Selectivity INDEX (SI = CC50/EC50) (HepG2 cell line): >10.8; CC50 (HepG2 cell line): > 125 µM
CCOC(=O)CN1C(=O)S/C(=C\c2cc(OC)c(OC)c(OC)c2)C1=O [Compound 12e]	145 to 147 °C	–
CC(=O)CN1C(=O)S/C(=C\c2ccccc2)C1=O [Compound 13a, (Z)-5-Benzylidene-3-(2-oxopropyl)thiazolidine-2,4-dione]	139 to 140 °C	–
CC(=O)CN1C(=O)S/C(=C\c2ccccc2[N+](=O)[O-])C1=O [Compound 13b, (Z)-5-(2-Nitrobenzylidene)-3-(2-oxopropyl)thiazolidine-2,4-dione]	146 to 148 °C	–
CC(=O)CN1C(=O)S/C(=C\c2cccc([N+](=O)[O-])c2)C1=O [Compound 13c, (Z)-5-(3-Nitrobenzylidene)-3-(2-oxopropyl)thiazolidine-2,4-dione]	188 to 190 °C	–
CC(=O)CN1C(=O)S/C(=C\c2ccc([N+](=O)[O-])cc2)C1=O [Compound 13d, (Z)-5-(4-Nitrobenzylidene)-3-(2-oxopropyl)thiazolidine-2,4-dione]	207 to 209 °C	–
COc1cc(/C=C2\SC(=O)N(CC(C)=O)C2=O)cc(OC)c1OC [Compound 13e]	139 to 140 °C	–
N#CCN1C(=O)S/C(=C\c2ccccc2)C1=O [Compound 14a, (Z)-2-(5-Benzylidenethiazolidine-2,4-dion-3-yl)acetonitrile]	230 to 232 °C	–
N#CCN1C(=O)S/C(=C\c2ccccc2[N+](=O)[O-])C1=O [Compound 14b, (Z)-2-(5-(2-Nitrobenzylidene)thiazolidine-2,4-dion-3-yl)acetonitrile]	119 to 120 °C	–
NC(=O)CN1C(=O)S/C(=C\c2ccccc2)C1=O [Compound 15a, (Z)-2-(5-Benzylidenethiazolidine-2,4-dion-3-yl)acetamide]	229 to 231 °C	–
NC(=O)CN1C(=O)S/C(=C\c2ccccc2[N+](=O)[O-])C1=O [Compound 15b, (Z)-2-(5-(2-Nitrobenzylidene)thiazolidine-2,4-dion-3-yl)acetamide]	233 to 235 °C	–

SMILES	melting point	further results
NC(=O)CN1C(=O)S/C(=C\c2ccc([N+](=O)[O-])cc2)C1=O [Compound 15d, (Z)-2-(5-(4-Nitrobenzylidene)thiazolidine-2,4-dion-3-yl)acetamide]	281 to 283 °C	–
COc1cc(/C=C2\SC(=O)N(CC(N)=O)C2=O)cc(OC)c1OC [Compound 15e]	274 to 275 °C (dec.)	–
O=C(CN1C(=O)S/C(=C\c2ccccc2)C1=O)c1ccccc1 [Compound 16a]	182 to 183 °C	–
O=C(CN1C(=O)S/C(=C\c2ccc([N+](=O)[O-])cc2)C1=O)c1ccccc1 [Compound 16d, (Z)-5-(4-Nitrobenzylidene)-3-(2-oxo-2-phenylethyl)thiazolidine-2,4-dione]	232 to 233 °C	–
COc1cc(/C=C2\SC(=O)N(CC(=O)c3ccccc3)C2=O)cc(OC)c1OC [Compound 16e, (Z)-3-(2-Oxo-2-phenylethyl)-5-(3,4,5-trimethoxybenzylidene)thiazolidine-2,4-dione]	187 to 189 °C	–
O=C(CN1C(=O)S/C(=C\c2ccccc2)C1=O)Nc1ccccc1 [Compound 23a]	259 to 260 °C	–
O=C(CN1C(=O)S/C(=C\c2cccc([N+](=O)[O-])c2)C1=O)Nc1ccccc1 [Compound 23c, (Z)-2-(5-(3-Nitrobenzylidene)thiazolidine-2,4-dion-3-yl)-N-phenylacetamide]	255 to 257 °C	–
O=C(CN1C(=O)S/C(=C\c2ccc([N+](=O)[O-])cc2)C1=O)Nc1ccccc1 [Compound 23d, (Z)-2-(5-(4-Nitrobenzylidene)thiazolidine-2,4-dion-3-yl)-N-phenylacetamide]	259 to 261 °C	–
COc1cc(/C=C2\SC(=O)N(CC(=O)Nc3ccc(C)cc3)C2=O)cc(OC)c1OC [Compound 24e, (Z)-N-(4-Methylphenyl)-2-(5-(3,4,5-trimethoxybenzylidene)thiazolidine-2,4-dion-3-yl)acetamide]	196 to 198 °C	–
COc1ccc(NC(=O)CN2C(=O)S/C(=C\c3ccc([N+](=O)[O-])cc3)C2=O)cc1 [Compound 25d, (Z)-N-(4-Methoxyphenyl)-2-(5-(4-nitrobenzylidene)thiazolidine-2,4-dion-3-yl)acetamide]	254 to 256 °C	–
COc1ccc(NC(=O)CN2C(=O)S/C(=C\c3cc(OC)c(OC)c(OC)c3)C2=O)cc1 [Compound 25e, (Z)-N-(4-Methoxyphenyl)-2-(5-(3,4,5-trimethoxybenzylidene)thiazolidine-2,4-dion-3-yl)acetamide]	215 to 216 °C	–
O=C(CN1C(=O)S/C(=C\c2ccccc2)C1=O)Nc1ccc([N+](=O)[O-])cc1 [Compound 26a, (Z)-2-(5-Benzylidenethiazolidine-2,4-dion-3-yl)-N-(4-nitrophenyl)acetamide]	270 to 272 °C	–
COc1cc(/C=C2\SC(=O)N(CC(=O)Nc3ccc([N+](=O)[O-])cc3)C2=O)cc(OC)c1OC [Compound 26e, (Z)-N-(4-Nitrophenyl)-2-(5-(3,4,5-trimethoxybenzylidene)thiazolidine-2,4-dion-3-yl)acetamide]	253 to 254 °C	–
O=C(CN1C(=O)S/C(=C\c2ccccc2)C1=O)Nc1ccccc1Cl [Compound 28a, (Z)-2-(5-Benzylidenethiazolidine-2,4-dion-3-yl)-N-(2-chlorophenyl)acetamide]	243 to 245 °C	–
COc1cc(/C=C2\SC(=O)N(CC(=O)Nc3ccccc3Cl)C2=O)cc(OC)c1OC [Compound 28e, (Z)-N-(2-Chlorophenyl)-2-(5-(3,4,5-trimethoxybenzylidene)thiazolidine-2,4-dion-3-yl)acetamide]	222 to 223 °C	–
O=C(O)CN1C(=O)S/C(=C\c2cccc([N+](=O)[O-])c2)C1=O [Compound 29, (Z)-2-(5-(3-Nitrobenzylidene)thiazolidin-2,4-dion-3-yl)acetic Acid]	191 to 193 °C	EC50 ([1]; Leishmania infantum): > 50 µM; CC50 at 72 h [2]: > 250 µM
